Test results from patent publication US20060154990A1, “Use of MEK inhibitors in treating abnormal cell growth” (AGOURON PHARMACEUTICALS, INC., priority 2004, published 2006).
Several values for one entry are separate records, joined by “and”; a condition that tells them apart may be missing. Equal entries are not always repeated. Where two headings read alike, the source gives them in different places.

Experiments:
pERK in MiaPaCa2 tumors = experiment: Tumor pERK inhibition and PK-PD in MiaPaCa2 xenograft; parameters: species or system mice; details: Mus musculus, MIA PaCa-2, 24 h, 25 mg/kg oral, read-out: Ex vivo % pERK inhibition at 24 h
HT-29 colon xenograft = experiment: Antitumor activity in HT-29 tumor model; format: in vivo, mice; details: oral 25 mg/kg once a day for 14 days
[1] = system: ZR-75-1 (human tumor of unknown phenotype); experiment: Antitumor activity in ZR-75-1 tumor model; format: in vivo, mice; details: ZR-75-1 (unknown phenotype), oral 25 mg/kg once a day for 14 days
[2] = Metabolites of [14C] Compound 1 in liver microsomes; format: in vitro ADME, human; details: [C-14] Compound 1 10 μM, 90 mins
Protocol: Incubations were performed in hepatocytes for 3 hours and liver microsomes for 1.5 hours and were stopped with the addition of methanol. HPLC, in conjuction with ionspray 3D iontrap mass spectrometry, and simultaneous radioactive monitoring were used to detect and identify the resulting metabolites.
This acid cleavage product is further metabolized to form hydroxylated (M 11, 16% in rat) and hydroxylated, defluorinated products (M 17, 19% in rat).

[3] = system: ERK phosphorylation in colon 26 cells; experiment: cells; details: Mus musculus
panel of 27 kinases = experiment: Specificity against a panel of 27 kinases; details: 10 μM
[4] = Pilot food effect assessment of plasma pharmacokinetics; details: for AUC(0-24) Change % / Cmax Change %: fed versus fasted; for Cmax / Tmax / AUC(0-t): human, plasma, oral
pERK in tumor biopsies = experiment: Immunohistochemical analysis of pERK in paired tumor biopsies

Structure (SMILES): O=C(NOC[C@H](O)CO)c1ccc(F)c(F)c1Nc1ccc(I)cc1F [Compound 1, N-[(R)-2,3-dihydroxy-propoxy]-3,4-difluoro-2-(2-fluoro-4-iodo-phenylamino)-benzamide]
- inhibition at 25 mg/kg (pERK in MiaPaCa2 tumors): 93%
- CR (complete responder) (HT-29 colon xenograft): 0/10
- PR (partial responder) (HT-29 colon xenograft): 0/10
- Tumor Free (HT-29 colon xenograft): 0/10
- CR (complete responder) [1]: 7/8
- PR (partial responder) [1]: 1/8
- T − C [1]: 24.2 days
- Tumor Free [1]: 0/8
- % ROI Human [2]: 77.36%
- IC50 ([3]; Colon 26, 1 h, read-out: Cellular IC50): 0.34 nM
- IC50 ([3]; Colon 26, read-out: IC50, phosphorylation of MAP kinase): 0.33 nM
- inhibition of panel of 27 kinases (panel of 27 kinases): completely refractory to inhibition
- AUC(0-24) Change % ([4]; 1 mg BID, individual patients): −76% and 390%
- Cmax Change % ([4]; 1 mg BID, individual patients): −82% and 161%
- AUC(0-24) Fasted ([4]; 1 mg BID, individual patients): 998 ng·h/mL and 133 ng·h/mL
- AUC(0-24) Fed ([4]; 1 mg BID, individual patients): 244 ng·h/mL and 652 ng·h/mL
- Cmax Fasted ([4]; 1 mg BID, individual patients): 181 ng/mL and 21.6 ng/mL
- Cmax Fed ([4]; 1 mg BID, individual patients): 56.4 ng/mL
- AUC(0-24) Change % ([4]; 2 mg BID, individual patients): −38% and 138% and 74% and 1%
- Cmax Change % ([4]; 2 mg BID, individual patients): −62% and −29% and −28% and −36%
- AUC(0-24) Fasted ([4]; 2 mg BID, individual patients): 874 ng·h/mL and 526 ng·h/mL and 454 ng·h/mL
- AUC(0-24) Fed ([4]; 2 mg BID, individual patients): 369 ng·h/mL and 2080 ng·h/mL and 914 ng·h/mL and 456 ng·h/mL
- Cmax Fasted ([4]; 2 mg BID, individual patients): 77.5 ng/mL and 173 ng/mL and 71.9 ng/mL and 88.7 ng/mL
- Cmax Fed ([4]; 2 mg BID, individual patients): 29.5 ng/mL and 122 ng/mL and 52.1 ng/mL and 56.7 ng/mL
- Tmax Fed ([4]; 2 mg BID, individual patients): 8 h
- AUC(0-24) Change % ([4]; 4 mg BID, individual patients): −7% and −20% and −18% (2×)
- Cmax Change % ([4]; 4 mg BID, individual patients): −25% and −49% (2×) and −57%
- AUC(0-24) Fasted ([4]; 4 mg BID, individual patients): 1060 ng·h/mL and 721 ng·h/mL and 919 ng·h/mL
- AUC(0-24) Fed ([4]; 4 mg BID, individual patients): 849 ng·h/mL and 590 ng·h/mL and 754 ng·h/mL
- Cmax Fasted ([4]; 4 mg BID, individual patients): 65.5 ng/mL and 157 ng/mL and 114 ng/mL
- Cmax Fed ([4]; 4 mg BID, individual patients): 80.7 ng/mL and 58.4 ng/mL and 68.0 ng/mL
- Tmax Fasted ([4]; 4 mg BID, individual patients): 1 h
- AUC(0-24) Change % ([4]; 15 mg BID, individual patients): −14% and −67% and −27%
- Cmax Change % ([4]; 15 mg BID, individual patients): −59% and −80% and −50%
- AUC(0-24) Fasted ([4]; 15 mg BID, individual patients): 2880 ng·h/mL and 4880 ng·h/mL
- AUC(0-24) Fed ([4]; 15 mg BID, individual patients): 4700 ng·h/mL and 957 ng·h/mL and 3580 ng·h/mL
- Cmax Fasted ([4]; 15 mg BID, individual patients): 1120 ng/mL and 464 ng/mL and 641 ng/mL
- Cmax Fed ([4]; 15 mg BID, individual patients): 459 ng/mL and 92.0 ng/mL and 319 ng/mL
- AUC(0-24) Change % ([4]; 20 mg BID, individual patients): −6% and −2% and −15%
- Cmax Change % ([4]; 20 mg BID, individual patients): −57% and −32% and −34%
- AUC(0-24) Fasted ([4]; 20 mg BID, individual patients): 4340 ng·h/mL and 6820 ng·h/mL and 3360 ng·h/mL
- AUC(0-24) Fed ([4]; 20 mg BID, individual patients): 4060 ng·h/mL and 6700 ng·h/mL and 2860 ng·h/mL
- Cmax Fasted ([4]; 20 mg BID, individual patients): 1180 ng/mL and 596 ng/mL
- Cmax Fed ([4]; 20 mg BID, individual patients): 358 ng/mL and 797 ng/mL and 393 ng/mL
- coefficient of variation (CV) for AUC(0-24) ([4]; fed state): 78%
- Cmax ([4]; 1 mg, Cmax Fed, 1 mg BID, individual patients): 33.4 ng/mL
- Tmax ([4]; 1 mg, Tmax Fasted, 1 mg BID, individual patients): 1 h
- Tmax ([4]; 1 mg, Tmax Fed, 1 mg BID, individual patients): 3 h
- AUC(0-t) ([4]; 2 mg, AUC(0-24) Fasted, 2 mg BID, individual patients): 594 ng·h/mL
- Tmax ([4]; 2 mg, Tmax Fasted, 2 mg BID, individual patients): 1 h
- Tmax ([4]; 2 mg, Tmax Fed, 2 mg BID, individual patients): 6 h
- AUC(0-t) ([4]; 4 mg, AUC(0-24) Fasted, 4 mg BID, individual patients): 705 ng·h/mL
- AUC(0-t) ([4]; 4 mg, AUC(0-24) Fed, 4 mg BID, individual patients): 654 ng·h/mL
- Cmax ([4]; 4 mg, Cmax Fed, 4 mg BID, individual patients): 49.1 ng/mL
- Tmax ([4]; 4 mg, Tmax Fed, 4 mg BID, individual patients): 6 h
- AUC(0-t) ([4]; 15 mg, AUC(0-24) Fasted, 15 mg BID, individual patients): 5460 ng·h/mL
- Tmax ([4]; 15 mg, Tmax Fasted, 15 mg BID, individual patients): 1 h
- Tmax ([4]; 15 mg, Tmax Fed, 15 mg BID, individual patients): 4 h
- Cmax ([4]; 20 mg, Cmax Fasted, 20 mg BID, individual patients): 839 ng/mL
- Tmax ([4]; 20 mg, Tmax Fasted, 20 mg BID, individual patients): 1 h
- Tmax ([4]; 20 mg, Tmax Fed, 20 mg BID, individual patients): 4 h
- delay of peak plasma levels ([4]; taken with a high fat meal): 2 to 7 h
- pERK % Reduction from Baseline (pERK in tumor biopsies; 1 mg BID, melanoma, individual patients): −65% and 0%
- pERK % Reduction from Baseline (pERK in tumor biopsies; 1 mg QD, breast, individual patient): −4%
- pERK % Reduction from Baseline (pERK in tumor biopsies; 1 mg QD, melanoma, individual patients): −93% and 0%
- pERK % Reduction from Baseline (pERK in tumor biopsies; 2 mg BID, colon, individual patient): 0%
- pERK % Reduction from Baseline (pERK in tumor biopsies; 2 mg BID, lung, individual patient): −95%
- pERK % Reduction from Baseline (pERK in tumor biopsies; 2 mg BID, melanoma, individual patients): −97% and −100%
